Experimental data reported in patent US8716355B2, “Hydroxylated tolans and related compounds in the treatment of a cancer” (Kent State University, priority 2007, dated 2014).

Assays:
[1] = system: rat-organ homogenates; details: cited from earlier work
[2] = system: rat erythrocyte (RBC); details: cited from earlier work
[3] = system: rat-organ homogenates; details: cited from earlier work; remark: listed apart in the source
[4] = system: prostate cancer; test: Prostate cancer patients (Example VIII A); assay type: in vivo, human; details: daily 10 μg to 5 mg/Kg; no significant differences between the four groups
Protocol: A group of 40 men aged 55-75 suffering from prostate cancer receive a daily dosage of between 10 μg and 5 mg/Kg body weight of KST-201, KST-213, KST-301 or KST-401 (10 patients per compound). Examination of the patients by clinical, radiographic and histopathological tests show significant shrinkage in tumors, and signs of cell death in 38% of the patients; there are no significant differences between the four treatment groups.

[5] = system: breast cancer; test: Breast cancer prevention, skin patch (Example VIII C); assay type: in vivo, human; details: transdermal patch 10 mg to 100 mg daily, one-year study
Protocol: This study investigates whether KST-201, KST-213, KST-301 and KST-401 administered transdermally each day through a skin patch aid in preventing breast cancer or metastatic cancer following cancer therapy. Patches are prepared with a lipophilic carrier which is readily absorbed through the skin (glycerol cold cream containing glycerin and peanut oil). The HT compound is mixed with the lipophilic cream such that each patch comprises 10 mg to 100 mg of active compound. The patch is applied to the skin each day, and rapid absorption occurs. After two hours, the patch is removed.

[6] = system: ovarian cancer; test: Ovarian cancer patients (Example VIII D); assay type: in vivo, human; details: daily gelatin capsule 200 mg
Protocol: A study is carried out in a group of 40 women with ovarian cancer of various grades to determine the effect of treatment with compounds of KST-201, KST-213, KST-301 and KST-401. The administration protocol involves daily administration of a gelatin capsule containing 200 mg of active compound.

[7] = system: bladder cancer; test: Bladder cancer patients (Example VIII B); assay type: in vivo, human; details: intravenous 10 μg to 5 mg/kg over three months
Protocol: A group of 20 men and 20 women aged 50-75 with bladder cancer are treated by intravenous injection of between 10 μg and 5 mg/kg of KST-201, KST-213, KST-301 or KST-401. Each compound is given to a group of 5 men and 5 women) over a period of three months. Clinical, radiographic and histopathological tests show significant remission in 35% of patients, accompanied by signs of cell death in 45%. There are no significant differences between the results with the four compounds.

[8] = molecular target: T1, human recombinant COX-2 (Homo sapiens, UniProt P35354); test: COX Inhibitor Screening Assay, COX2; assay type: biochemical; details: doses of 10 to 200 μM tested
T1 construct: purchased Cayman Chemical 560131
From the text: The Cayman COX Inhibitor Screening Assay includes both ovine COX-1 and human recombinant COX-2 enzymes in order to screen isozyme-specific inhibitors.

[9] = system: colon cancer; test: Colon cancer patients (Example VIII E); assay type: in vivo, human
Protocol: Eight patients suffering from advanced colon cancer are treated daily for three weeks with an intravenous infusion of 2 g of the compounds KST-201, KST-213, KST-301 or KST-401 dissolved in saline. Two patients are assigned to each compound. The compounds are dissolved in sterile saline. […] Progression of the tumor is also arrested over the treatment period.
Another eight patients with terminal colon cancer are treated by daily bolus injections (intravenous or intramuscular) of 2 g of KST-201, KST-213, KST-301 or KST-401.

[10] = system: DU145 cells; test: Flow cytometric cell cycle analysis of DU145 cells; assay type: cell-based, human
Protocol: Initially, the mechanism(s) responsible for the antitumor activity of KST-201 were tested in the DU145 cell line. […] The cell cycle distribution of sham-treated (FIG. 4, upper left) DU145 cells or DU145 cells treated with KST-201 at 14 μM (FIG. 4, upper right), 28 μM (FIG. 4, lower left) or 56 μM (FIG. 4, lower right) were determined by flow cytometry.

[11] = system: caspase-3; test: Caspase-3 activity in DU145 cells (fluorimetric immunosorbent enzyme assay); assay type: cell-based, human
Protocol: FIG. 5. Measurement of Caspase-3 Activity in Resveratrol-treated DU145 cells. […] Activity of proteolytic cleavage was determined fluorometrically using Ac-DEVD-AFC as a substrate for activated caspase-3 immobilized on the well surface. The results represent mean±SD of triplicate determinations. The positive control (“Post. Ctl”) was camptothecin-induced apoptosis in U937 cells.
FIG. 6. Measurement of Caspase-3 Activity of KST-201-treated DU145 cells as a function of dose. […] Activity of proteolytic cleavage (caspase-3 activity) and other details are as above.
FIG. 7. Time course of Caspase-3 Activation by KST201 in DU145 cells as a measure of apoptosis. DU145 cells were treated at CD50 of KST201 for 12, 24 or 48 hours. Details are as described for FIG. 5.
The proteolytic activity of caspase-3 in DU145 cells, was measured using a fluorimetric immunosorbent enzyme assay kit. […] After washing and centrifuging, the cell pellet was collected and incubated with dithiothreitol (DTT) lysis buffer on ice. The cell lysate was then transferred to a centrifuge tube for measurement of proteolytic cleavage by caspase-3 utilizing a fluorimetric immunosorbent enzyme assay kit (Roche, Indianapolis, Ind.). Antibody against caspase-3 was diluted in the coating buffer and immobilized to the surface of 96-well plates followed by washing steps. Compound-treated cell lysates and the untreated controls were added to the plate and incubated for one hour at 37° C. Any caspase-3 in the samples was captured by the immobilized antibody. The caspase-3 enzyme cleaved its fluorogenic substrate Ac-DEVD-AFC when it was added to the wells, resulting in. free fluorescent AFC that was measured in a Fluoroskan® Ascent FL plate reader (Thermo, Waltham, Mass.) with a filter set at an excitation/emission of 390 nm/[…]. The fluorescence intensity was proportional to the concentration of AFC determined by a standard curve, generated by different dilutions of AFC standard included in the kit. The amount of activated caspase-3 in the sample was derived from this curve.

[12] = intravenous infusion 2 g daily for three weeks

T1 sequence (P35354 18-604): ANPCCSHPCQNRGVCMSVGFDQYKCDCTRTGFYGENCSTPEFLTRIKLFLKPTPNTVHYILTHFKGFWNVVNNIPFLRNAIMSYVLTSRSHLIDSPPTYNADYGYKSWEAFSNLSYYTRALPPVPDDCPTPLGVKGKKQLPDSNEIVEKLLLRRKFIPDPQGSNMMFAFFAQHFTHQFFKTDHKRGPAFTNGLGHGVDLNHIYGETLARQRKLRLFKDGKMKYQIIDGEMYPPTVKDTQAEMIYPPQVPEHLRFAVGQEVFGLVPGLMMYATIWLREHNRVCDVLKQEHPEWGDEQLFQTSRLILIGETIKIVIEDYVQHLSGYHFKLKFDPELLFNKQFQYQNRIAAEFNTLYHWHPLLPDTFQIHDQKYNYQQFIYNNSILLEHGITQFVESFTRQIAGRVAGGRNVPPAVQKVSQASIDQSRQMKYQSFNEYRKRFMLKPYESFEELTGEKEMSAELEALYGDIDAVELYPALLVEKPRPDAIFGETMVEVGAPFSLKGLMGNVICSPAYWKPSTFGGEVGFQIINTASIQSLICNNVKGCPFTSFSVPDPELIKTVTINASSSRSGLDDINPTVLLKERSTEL

In the case of Oc1ccc(/C=C/c2cc(O)cc(O)c2)cc1 [Resveratrol, 3,5,4′-trihydroxy-trans-stilbene, reference compound], the “Inhibition (%) of autooxidation MDA level at 7.5 μM, In rat brain” value ([1]; rat brain) is given as 69.93%, the “Inhibition (%) of autooxidation MDA level at 7.5 μM, In rat kidney” value ([1]; rat kidney) is given as 40.37% and the “Inhibition (%) of autooxidation MDA level at 7.5 μM, In rat liver” value ([1]; rat liver) is given as 67.69%. For the same molecule, the “Inhibition (%) of RBC hemolysis induced by H2O2 at 4 μM” value [2] was 45.23%, the “Inhibition (%) of Fe2+ − VitC induced level of MDA at 15 μM, In rat brain” value ([3]; rat brain) was 83.20% and the “Inhibition (%) of Fe2+ − VitC induced level of MDA at 15 μM, In rat kidney” value ([3]; rat kidney) was 62.15%. The “Inhibition (%) of Fe2+ − VitC induced level of MDA at 15 μM, In rat liver” value ([3]; rat liver) was 50.36%.
With Oc1ccc(C#Cc2ccc(O)cc2)cc1 [KST-201, 4,4′-dihydroxytolan] the “Patients with significant shrinkage in tumors, and signs of cell death” value [4] was 38%, the “Breast cancer or metastatic cancer in high-risk group” value [5] was “does not show any evidence of breast cancer or other metastatic cancer” and the “Rate of production of ovarian cancer markers (Muc-1, Sp17)” value [6] was “significant decrease”. The “Tumor growth during study period” value [6] was “Tumors regress or show no further growth”, the “Patients with signs of cell death” value [7] was 45% and the “Patients with significant remission” value ([7]; no differences between compounds) was 35%. The “Inhibition of COX2 activity” value [8] was “about 50%”, the “Dissemination of the tumors” value ([9]; daily bolus injections (intravenous or intramuscular) of 2 g) was “dissemination of the tumors is diminished” and the “Cancer marker carcinoembryonic antigen (CEA)” value [9, 12] was “significant reduction”. For the same molecule, the “Progression of the tumor” value [9, 12] was “arrested”, the “Phase of Cell Cycle S” value ([10]; 14 μM, untreated 40) was 28 and the “Phase of Cell Cycle G0/G1” value ([10]; 14 μM, untreated 46) was 72. The “Phase of Cell Cycle G0/G1” value ([10]; 28 μM) was 77, the “Phase of Cell Cycle G2/M” value ([10]; 28 μM) was 3 and the “Phase of Cell Cycle S” value ([10]; 28 μM) was 20. For the same molecule, the “Phase of Cell Cycle G0/G1” value ([10]; 56 μM) was 78, the “Phase of Cell Cycle G2/M” value ([10]; 56 μM) was 4 and the “Phase of Cell Cycle S” value ([10]; 56 μM) was 18. For the same molecule, the “Effect on cell cycle (in words)” value ([10]; 14, 28 and 56 μM) was “G0/G1-S cell cycle arrest”, the Caspase-3 activation ([11]; 0.5×CD50, 24 hr) was “effectively activated caspase-3” and the Caspase-3 activity ([11]; 48 hours or 2×CD50) was “loss of caspase-3 activity”. For the same molecule, the Caspase-3 activation ([11]; CD50 concentration, 24 hr) was “activated significantly”.
